Legend:
[1] = target: T1, cGMP-specific 3',5'-cyclic phosphodiesterase (Homo sapiens, UniProt O76074); experiment: Inhibition of full length human recombinant N-terminal GST-tagged PDE5A1 expressed in baculovirus infected sf9 cells using cGMP as substrate after 30 mins by fluorescence assay
Histone deacetylase 1 [2] = target: T2, Histone deacetylase 1 (Homo sapiens, UniProt Q13547); experiment: Inhibition of full length human recombinant C-terminal FLAG/His-tagged HDAC1 expressed in baculovirus infected sf9 cells using fluorogenic HDAC substrate 3 after 30 mins by fluorescence assay
[3] = target: T3, Protein deacetylase HDAC6 (Homo sapiens, UniProt Q9UBN7); experiment: Inhibition of full length human recombinant N-terminal GST-tagged HDAC6 expressed in baculovirus infected sf9 cells using fluorogenic HDAC substrate 3 after 30 mins by fluorescence assay
T3 sequence (Q9UBN7 whole entry): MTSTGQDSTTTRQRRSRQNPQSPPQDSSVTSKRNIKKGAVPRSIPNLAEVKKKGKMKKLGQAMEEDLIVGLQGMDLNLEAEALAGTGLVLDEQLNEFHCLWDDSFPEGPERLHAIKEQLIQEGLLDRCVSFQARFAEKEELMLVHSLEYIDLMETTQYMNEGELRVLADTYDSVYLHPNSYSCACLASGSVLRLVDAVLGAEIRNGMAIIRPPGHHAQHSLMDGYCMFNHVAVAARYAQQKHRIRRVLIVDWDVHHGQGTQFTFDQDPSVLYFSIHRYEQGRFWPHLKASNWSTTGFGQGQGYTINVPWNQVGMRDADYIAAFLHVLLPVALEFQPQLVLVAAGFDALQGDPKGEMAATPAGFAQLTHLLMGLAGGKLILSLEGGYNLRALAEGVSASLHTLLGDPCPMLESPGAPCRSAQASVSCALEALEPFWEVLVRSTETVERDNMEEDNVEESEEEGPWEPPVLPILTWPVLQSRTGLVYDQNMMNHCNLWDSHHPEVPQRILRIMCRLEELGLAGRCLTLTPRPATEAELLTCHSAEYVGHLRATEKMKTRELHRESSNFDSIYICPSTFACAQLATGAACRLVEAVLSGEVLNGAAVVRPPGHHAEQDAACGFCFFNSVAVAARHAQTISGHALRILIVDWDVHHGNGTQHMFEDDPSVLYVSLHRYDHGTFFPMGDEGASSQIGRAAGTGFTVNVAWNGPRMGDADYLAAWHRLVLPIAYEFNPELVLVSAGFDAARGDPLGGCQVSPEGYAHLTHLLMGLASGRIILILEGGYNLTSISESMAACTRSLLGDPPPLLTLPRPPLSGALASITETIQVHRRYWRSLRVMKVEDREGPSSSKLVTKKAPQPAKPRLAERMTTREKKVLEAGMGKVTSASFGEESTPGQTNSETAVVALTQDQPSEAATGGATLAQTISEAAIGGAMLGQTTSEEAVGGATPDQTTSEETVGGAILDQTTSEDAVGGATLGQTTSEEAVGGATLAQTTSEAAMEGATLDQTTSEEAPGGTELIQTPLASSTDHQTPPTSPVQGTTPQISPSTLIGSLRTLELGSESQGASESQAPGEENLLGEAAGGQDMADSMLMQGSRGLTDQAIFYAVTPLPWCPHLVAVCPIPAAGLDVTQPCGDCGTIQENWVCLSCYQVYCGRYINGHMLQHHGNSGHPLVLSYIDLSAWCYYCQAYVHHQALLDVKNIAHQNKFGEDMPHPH

Histone deacetylase 2 [4] = target: T4, Histone deacetylase 2 (Homo sapiens, UniProt Q92769); experiment: Inhibition of full length human recombinant C-terminal His-tagged HDAC2 expressed in baculovirus infected sf9 cells using fluorogenic HDAC substrate 3 after 30 mins by fluorescence assay
[5] = Cytotoxicity against human THLE2 cells after 72 hrs by vialight cell proliferation assay; assay type: cell-based, THLE-2; conditions: read-out: LC50
[6] = target: Histone deacetylase 3/Nuclear receptor corepressor 2 (HDAC3/NCoR2) (Homo sapiens, UniProt O15379); experiment: Inhibition of full length human recombinant C-terminal His-tagged HDAC3/N-terminal GST-tagged NCOR2 (95 to 489 residues) expressed in baculovirus infected sf9 cells using fluorogenic HDAC substrate 3 after 30 mins by fluorescence assay
[7] = Effective permeability of the compound at 50 uM after 18 hrs by UV spectroscopy based PAMPA; assay type: ADME; conditions: read-out: Peff
cells [8] = conditions: Homo sapiens, SH-SY5Y, 2 h, read-out: FC
cells [9] = conditions: Homo sapiens, SH-SY5Y, 2 h, read-out: FC; remark: listed apart in the source
cells [10] = conditions: Homo sapiens, SH-SY5Y, 2 h, read-out: FC; remark: listed apart in the source
[11] = target: T3, Protein deacetylase HDAC6; experiment: Inhibition of HDAC6 (unknown origin)
Histone deacetylase 2 [12] = target: T4, Histone deacetylase 2; assay type: ADME
Histone deacetylase 1 [13] = target: T2, Histone deacetylase 1; experiment: Inhibition of HDAC1 (unknown origin)
Histone deacetylase 3 = Histone deacetylase 3 (Homo sapiens, UniProt O15379); experiment: Inhibition of HDAC3 (unknown origin)
[14] = target: T1, cGMP-specific 3',5'-cyclic phosphodiesterase; experiment: Inhibition of PDE5A (unknown origin)
[15] = target: cGMP-inhibited 3',5'-cyclic phosphodiesterase 3A (Homo sapiens, UniProt Q14432); experiment: Inhibition of PDE3A (unknown origin) using FAM-cGMP as substrate by fluorescence assay
[16] = Inhibition of class-1 HDAC in human SH-SY5Y cells assessed as induction of AcH3K9 level at 500 nM after 0.5 to 2 hrs by Western blot analysis; assay type: cell-based; conditions: 0.5 µM

Sequence of Histone deacetylase 3/Nuclear receptor corepressor 2 (HDAC3/NCoR2) (O15379 whole entry, the tested form may be a part): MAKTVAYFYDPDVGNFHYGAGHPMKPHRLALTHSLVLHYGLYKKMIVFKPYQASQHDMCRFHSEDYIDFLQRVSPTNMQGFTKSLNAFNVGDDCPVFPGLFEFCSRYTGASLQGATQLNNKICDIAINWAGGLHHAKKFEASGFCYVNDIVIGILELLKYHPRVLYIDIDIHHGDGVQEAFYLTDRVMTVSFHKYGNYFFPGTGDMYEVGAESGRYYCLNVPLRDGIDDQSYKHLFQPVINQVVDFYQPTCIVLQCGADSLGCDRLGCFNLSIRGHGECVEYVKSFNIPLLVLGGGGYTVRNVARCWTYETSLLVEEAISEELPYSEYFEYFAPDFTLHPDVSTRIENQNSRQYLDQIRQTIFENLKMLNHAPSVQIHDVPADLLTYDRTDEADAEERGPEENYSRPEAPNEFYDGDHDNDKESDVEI
Sequence of Histone deacetylase 3/Nuclear receptor corepressor 2 (HDAC3/NCoR2) (Q9Y618 whole entry, further chain, the tested form may be a part): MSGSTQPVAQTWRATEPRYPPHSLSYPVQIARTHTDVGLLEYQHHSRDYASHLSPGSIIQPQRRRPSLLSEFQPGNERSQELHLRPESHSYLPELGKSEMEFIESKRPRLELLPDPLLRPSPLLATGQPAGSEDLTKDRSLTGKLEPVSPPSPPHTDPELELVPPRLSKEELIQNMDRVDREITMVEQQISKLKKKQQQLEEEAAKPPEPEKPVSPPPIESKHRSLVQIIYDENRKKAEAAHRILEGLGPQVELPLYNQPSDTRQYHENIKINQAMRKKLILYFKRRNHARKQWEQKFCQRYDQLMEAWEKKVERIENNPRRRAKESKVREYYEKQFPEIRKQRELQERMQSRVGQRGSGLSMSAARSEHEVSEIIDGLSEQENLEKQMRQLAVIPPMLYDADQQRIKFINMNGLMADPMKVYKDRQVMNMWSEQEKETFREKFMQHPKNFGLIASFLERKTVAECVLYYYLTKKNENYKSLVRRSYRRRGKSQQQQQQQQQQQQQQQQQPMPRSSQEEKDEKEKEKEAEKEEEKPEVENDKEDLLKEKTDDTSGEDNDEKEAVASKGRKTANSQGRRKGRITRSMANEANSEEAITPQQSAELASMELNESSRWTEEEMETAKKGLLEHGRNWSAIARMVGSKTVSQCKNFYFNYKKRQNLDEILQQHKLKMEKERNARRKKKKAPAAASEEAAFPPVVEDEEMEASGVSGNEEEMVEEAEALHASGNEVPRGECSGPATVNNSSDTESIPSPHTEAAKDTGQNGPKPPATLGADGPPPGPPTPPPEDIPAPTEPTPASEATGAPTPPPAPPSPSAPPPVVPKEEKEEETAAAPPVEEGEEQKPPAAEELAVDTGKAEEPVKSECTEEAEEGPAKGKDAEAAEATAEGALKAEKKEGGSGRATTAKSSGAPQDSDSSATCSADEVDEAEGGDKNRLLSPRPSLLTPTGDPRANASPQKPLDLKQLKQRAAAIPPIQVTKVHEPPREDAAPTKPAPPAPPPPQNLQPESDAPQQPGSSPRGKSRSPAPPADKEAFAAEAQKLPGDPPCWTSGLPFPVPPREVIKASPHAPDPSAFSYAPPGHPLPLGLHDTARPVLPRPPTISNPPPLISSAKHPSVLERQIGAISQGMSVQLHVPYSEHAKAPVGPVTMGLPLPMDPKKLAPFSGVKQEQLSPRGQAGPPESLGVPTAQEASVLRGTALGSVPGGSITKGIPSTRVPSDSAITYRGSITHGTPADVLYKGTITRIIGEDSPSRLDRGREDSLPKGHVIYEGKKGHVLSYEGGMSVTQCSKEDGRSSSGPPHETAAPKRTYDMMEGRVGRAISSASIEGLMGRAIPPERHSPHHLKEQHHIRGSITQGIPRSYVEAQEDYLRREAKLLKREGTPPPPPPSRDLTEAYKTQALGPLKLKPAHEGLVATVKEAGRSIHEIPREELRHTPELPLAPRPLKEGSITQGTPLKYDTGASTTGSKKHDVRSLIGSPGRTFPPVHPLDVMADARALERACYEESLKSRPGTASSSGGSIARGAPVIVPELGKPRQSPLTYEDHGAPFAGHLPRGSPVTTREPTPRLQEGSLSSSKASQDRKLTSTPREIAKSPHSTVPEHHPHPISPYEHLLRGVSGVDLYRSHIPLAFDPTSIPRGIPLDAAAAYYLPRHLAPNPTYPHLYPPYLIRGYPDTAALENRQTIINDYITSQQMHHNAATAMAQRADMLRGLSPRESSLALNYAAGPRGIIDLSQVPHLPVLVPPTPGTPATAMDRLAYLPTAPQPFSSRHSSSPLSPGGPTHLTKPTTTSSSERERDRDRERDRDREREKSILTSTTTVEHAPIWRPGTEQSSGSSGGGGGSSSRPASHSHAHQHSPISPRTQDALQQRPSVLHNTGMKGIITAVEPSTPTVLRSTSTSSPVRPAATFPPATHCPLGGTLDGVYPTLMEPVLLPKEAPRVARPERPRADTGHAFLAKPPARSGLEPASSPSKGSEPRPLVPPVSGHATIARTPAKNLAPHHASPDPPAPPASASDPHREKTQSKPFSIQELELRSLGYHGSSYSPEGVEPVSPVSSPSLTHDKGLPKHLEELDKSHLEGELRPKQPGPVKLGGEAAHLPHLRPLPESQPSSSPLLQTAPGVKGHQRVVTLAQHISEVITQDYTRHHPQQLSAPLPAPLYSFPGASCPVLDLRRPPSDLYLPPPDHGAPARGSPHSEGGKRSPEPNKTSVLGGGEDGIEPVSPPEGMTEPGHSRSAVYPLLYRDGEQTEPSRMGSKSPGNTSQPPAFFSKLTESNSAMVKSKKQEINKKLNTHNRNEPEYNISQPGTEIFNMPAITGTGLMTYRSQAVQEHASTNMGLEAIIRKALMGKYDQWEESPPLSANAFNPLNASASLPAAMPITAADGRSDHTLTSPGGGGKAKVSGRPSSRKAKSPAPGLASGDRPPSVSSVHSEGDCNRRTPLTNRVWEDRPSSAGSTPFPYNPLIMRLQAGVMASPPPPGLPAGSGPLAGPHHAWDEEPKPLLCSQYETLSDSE
T4 sequence (Q92769 whole entry): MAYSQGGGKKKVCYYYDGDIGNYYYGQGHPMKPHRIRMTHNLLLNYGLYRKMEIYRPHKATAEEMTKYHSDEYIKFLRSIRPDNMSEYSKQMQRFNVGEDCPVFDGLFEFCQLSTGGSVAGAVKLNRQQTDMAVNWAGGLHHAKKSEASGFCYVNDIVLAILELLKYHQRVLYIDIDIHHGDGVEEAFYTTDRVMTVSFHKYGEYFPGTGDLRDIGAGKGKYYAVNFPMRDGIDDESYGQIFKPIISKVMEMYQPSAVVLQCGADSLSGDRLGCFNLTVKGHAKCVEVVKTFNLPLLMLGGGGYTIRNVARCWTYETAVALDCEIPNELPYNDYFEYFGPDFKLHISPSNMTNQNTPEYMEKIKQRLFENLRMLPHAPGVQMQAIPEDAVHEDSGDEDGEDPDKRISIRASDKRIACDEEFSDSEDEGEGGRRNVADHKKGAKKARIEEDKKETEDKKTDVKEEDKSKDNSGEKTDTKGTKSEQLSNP
T2 sequence (Q13547 whole entry): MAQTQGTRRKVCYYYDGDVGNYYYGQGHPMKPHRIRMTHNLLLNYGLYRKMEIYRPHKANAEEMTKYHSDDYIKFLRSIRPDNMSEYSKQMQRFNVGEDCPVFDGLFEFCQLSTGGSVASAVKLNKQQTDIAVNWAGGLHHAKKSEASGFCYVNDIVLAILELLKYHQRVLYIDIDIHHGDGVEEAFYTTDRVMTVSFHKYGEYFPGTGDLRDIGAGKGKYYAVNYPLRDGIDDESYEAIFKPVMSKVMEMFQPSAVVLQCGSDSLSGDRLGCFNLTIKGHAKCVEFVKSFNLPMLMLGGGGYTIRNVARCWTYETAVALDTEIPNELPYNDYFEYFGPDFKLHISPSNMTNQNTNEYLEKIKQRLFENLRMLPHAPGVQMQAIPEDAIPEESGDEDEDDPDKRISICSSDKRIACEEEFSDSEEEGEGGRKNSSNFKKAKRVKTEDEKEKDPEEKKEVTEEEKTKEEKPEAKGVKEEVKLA
Sequence of Histone deacetylase 3 (O15379 whole entry): as the sequence (O15379 whole entry, the tested form may be a part) above
Sequence of cGMP-inhibited 3',5'-cyclic phosphodiesterase 3A (Q14432 whole entry): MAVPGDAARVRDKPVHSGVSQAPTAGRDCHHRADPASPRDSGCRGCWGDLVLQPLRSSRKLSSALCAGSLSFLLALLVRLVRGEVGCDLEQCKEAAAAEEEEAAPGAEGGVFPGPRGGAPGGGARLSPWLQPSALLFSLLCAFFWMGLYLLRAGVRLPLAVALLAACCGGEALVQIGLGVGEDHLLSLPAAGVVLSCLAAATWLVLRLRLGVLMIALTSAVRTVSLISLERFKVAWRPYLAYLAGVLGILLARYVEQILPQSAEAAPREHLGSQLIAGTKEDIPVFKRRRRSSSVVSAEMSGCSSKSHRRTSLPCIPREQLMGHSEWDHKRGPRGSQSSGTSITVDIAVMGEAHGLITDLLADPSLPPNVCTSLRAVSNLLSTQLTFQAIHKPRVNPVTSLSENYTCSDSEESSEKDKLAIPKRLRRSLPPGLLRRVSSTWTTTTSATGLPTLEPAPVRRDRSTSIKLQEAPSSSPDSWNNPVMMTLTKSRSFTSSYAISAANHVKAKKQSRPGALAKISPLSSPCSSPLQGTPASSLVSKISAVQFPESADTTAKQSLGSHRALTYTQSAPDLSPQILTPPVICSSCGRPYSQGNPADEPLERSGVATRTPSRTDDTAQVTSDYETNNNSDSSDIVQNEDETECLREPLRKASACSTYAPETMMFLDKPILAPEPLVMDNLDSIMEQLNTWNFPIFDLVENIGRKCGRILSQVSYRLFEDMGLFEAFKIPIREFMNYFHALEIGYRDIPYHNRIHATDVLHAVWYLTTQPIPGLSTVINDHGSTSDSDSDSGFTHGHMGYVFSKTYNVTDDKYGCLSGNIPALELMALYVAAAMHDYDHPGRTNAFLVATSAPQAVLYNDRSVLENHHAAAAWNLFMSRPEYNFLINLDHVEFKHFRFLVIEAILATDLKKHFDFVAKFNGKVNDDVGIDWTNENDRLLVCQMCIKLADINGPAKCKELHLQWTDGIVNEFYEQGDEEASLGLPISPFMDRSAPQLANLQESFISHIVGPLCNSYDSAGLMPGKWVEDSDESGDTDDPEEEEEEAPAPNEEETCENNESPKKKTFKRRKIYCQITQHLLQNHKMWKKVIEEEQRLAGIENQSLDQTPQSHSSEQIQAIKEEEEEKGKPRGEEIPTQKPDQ

Row | Compound | IC50 [1] | IC50 (Histone deacetylase 1 [2]) | IC50 [3] | IC50 (Histone deacetylase 2 [4]) | CC50 at 72 h [5] | Papp at 18 h, 50 µM [7] | fold induction at 0.5 µM (cells [8]) | fold induction at 1 µM (cells [9]) | fold induction at 0.1 µM (cells [10]) | other results
1 | CCCc1nn(C)c2c(=O)[nH]c(-c3cc(Cc4ccc(CC(=O)NO)cc4)ccc3OCC)nc12 | 15 nM | > 20000 nM | 162 nM | > 20000 nM | 5490 nM | 2.94 ×10⁻⁶ cm/s | – | – | – | IC50 [6]: > 20000 nM
2 | CCCc1nn(C)c2c(=O)[nH]c(-c3cc(Cc4ccc(C(=O)NO)c(F)c4)ccc3OCC)nc12 | 31 nM | 1110 nM | 142 nM | > 20000 nM | 3510 nM | 2.84 ×10⁻⁶ cm/s | 2.7 | 1.4 | 2 | –
3 | CCCc1nn(C)c2c(=O)[nH]c(-c3cc(-c4ccc(C(=O)NO)cc4)ccc3OCC)nc12 | 1 nM | 326 nM | 42 nM | 2550 nM | 8830 nM | 2.68 ×10⁻⁶ cm/s | 1.7 | 3.6 | 0.8 | –
4 | CCCc1nn(C)c2c(=O)[nH]c(-c3cc(Cc4ccc(C(=O)NO)cc4F)ccc3OCC)nc12 | 149 nM | 2030 nM | 87 nM | 14600 nM | 16500 nM | 3.7 ×10⁻⁶ cm/s | 1.1 | 1.6 | 0.9 | –
5 | CCCc1nn(C)c2c(=O)[nH]c(-c3cc(-c4ccc(CC(=O)NO)cc4)ccc3OCC)nc12 | 10 nM | > 20000 nM | 815 nM | > 20000 nM | 15400 nM | 1.97 ×10⁻⁶ cm/s | 0.8 | 1.2 | 0.6 | –
6 | CCCc1nc(C)c2c(=O)[nH]c(-c3cc(CC4CC(C(=O)NO)C4)ccc3OCC)nn12 (centres undefined) | – | – | – | – | – | – | – | – | – | IC50 [11]: 110 nM; IC50 (Histone deacetylase 2 [12]): 1260 nM; IC50 (Histone deacetylase 1 [13]): 286 nM; IC50 (Histone deacetylase 3): 854 nM; IC50 [14]: 5 nM
7 | CCCc1nn(C)c2c(=O)[nH]c(-c3cc(C4=CCC(CC(=O)NO)CC4)ccc3OCC)nc12 (centres undefined) | 14 nM | 1810 nM | 217 nM | > 20000 nM | – | – | – | – | – | –
8 | CCCc1nn(C)c2c(=O)[nH]c(-c3cc(C4CCC(C(=O)NO)CC4)ccc3OCC)nc12 (centres undefined) | 146 nM | 8380 nM | 3110 nM | > 20000 nM | – | – | – | – | – | –
9 | CCCc1nn(C)c2c(=O)[nH]c(-c3cc(CC4CC(C(=O)NO)C4)ccc3OCC)nc12 (centres undefined) | – | – | – | – | – | – | – | – | – | IC50 [15]: 1800 nM
10 | CCCc1nc(C)c2c(=O)[nH]c(-c3cc(Cc4ccc(C(=O)NO)cc4)ccc3OCC)nn12 | 13 nM | 1830 nM | 256 nM | 5190 nM | 26700 nM | 1.86 ×10⁻⁶ cm/s | 0.9 | 1.3 | 0.4 | –
11 | CCCc1nn(C)c2c(=O)[nH]c(-c3cc([C@H]4CC[C@H](C(=O)NO)CC4)ccc3OCC)nc12 | 190 nM | 10200 nM | 5440 nM | > 20000 nM | – | – | – | – | – | –
12 | CCCc1nn(C)c2c(=O)[nH]c(-c3cc(-c4ccc(C(=O)NO)s4)ccc3OCC)nc12 | 7 nM | 387 nM | 37 nM | 4800 nM | 2180 nM | 2.82 ×10⁻⁶ cm/s | 2.5 | 2.7 | 1.1 | –
13 | CCCc1nn(C)c2c(=O)[nH]c(-c3cc(S(=O)(=O)N4CCN(C)CC4)ccc3OCC)nc12 | – | – | – | – | > 100000 nM | – | – | – | – | –
14 | CCCc1nn(C)c2c(=O)[nH]c(-c3cc([C@H]4CC[C@@H](C(=O)NO)CC4)ccc3OCC)nc12 | 53 nM | 937 nM | 48 nM | > 20000 nM | 16000 nM | 1.68 ×10⁻⁶ cm/s | 1.8 | 5.4 | 0.7 | –
15 | CCCc1nc(C)c2c(=O)[nH]c(-c3cc(S(=O)(=O)N4CCN(CC)CC4)ccc3OCC)nn12 | – | – | – | – | > 100000 nM | 2.14 ×10⁻⁶ cm/s | – | – | – | –
16 | CCCc1nc(C)c2c(=O)[nH]c(-c3cc(Cc4ccc(C(=O)NO)s4)ccc3OCC)nn12 | 3 nM | 793 nM | 98 nM | 4390 nM | 6940 nM | 1.6 ×10⁻⁶ cm/s | 0.9 | 0.8 | 0.7 | –
17 | CCCc1nn(C)c2c(=O)[nH]c(-c3cc(C4=CCC(C(=O)NO)CC4)ccc3OCC)nc12 (centres undefined) | 27 nM | 2880 nM | 340 nM | > 20000 nM | – | – | – | – | – | –
18 | CCCc1nn(C)c2c(=O)[nH]c(-c3cc(N4CCC(C(=O)NO)CC4)ccc3OCC)nc12 | 36 nM | 7200 nM | 1180 nM | > 20000 nM | – | – | – | – | – | –
19 | CCCc1nn(C)c2c(=O)[nH]c(-c3cc(Cc4ccc(C(=O)NO)cc4)ccc3OCC)nc12 | 48 nM | 673 nM | 62 nM | 3860 nM | 14200 nM | 2.16 ×10⁻⁶ cm/s | 3.2 | 6.5 | 1.1 | IC50 [6]: 1350 nM
20 | CN1CCc2c(c3ccccc3n2Cc2ccc(C(=O)NO)cc2)C1 [TUBASTATIN A] | – | – | – | – | […] | 1.77 ×10⁻⁶ cm/s | – | – | – | inhibition (INH) [16]: Not Active

Further lines, with some results ahead:

Row | IC50 [1] | IC50 (Histone deacetylase 1 [2]) | IC50 [3] | IC50 (Histone deacetylase 2 [4]) | Compound | CC50 at 72 h [5] | Papp at 18 h, 50 µM [7] | fold induction at 0.5 µM (cells [8]) | fold induction at 1 µM (cells [9]) | fold induction at 0.1 µM (cells [10]) | other results
21 | 47 nM | > 20000 nM | > 20000 nM | > 20000 nM | CCCc1nn(C)c2c(=O)[nH]c(-c3cc(Cc4ccc(C(=O)NO)cc4OC)ccc3OCC)nc12 | – | – | – | – | – | –
22 | 10 nM | 335 nM | 89 nM | 1110 nM | CCCc1nn(C)c2c(=O)[nH]c(-c3cc(C(O)c4ccc(C(=O)NO)cc4)ccc3OCC)nc12 (centres undefined) | – | – | – | – | – | –
23 | 144 nM | > 20000 nM | > 20000 nM | > 20000 nM | CCCc1nn(C)c2c(=O)[nH]c(-c3cc(Cc4ccc(C(=O)NO)c(OC)c4)ccc3OCC)nc12 | – | – | – | – | – | –
24 | 20 nM | 357 nM | 77 nM | 1110 nM | CCCc1nn(C)c2c(=O)[nH]c(-c3cc(C(OC)c4ccc(C(=O)NO)cc4)ccc3OCC)nc12 (centres undefined) | – | – | – | – | – | –
25 | 2 nM | 490 nM | 66 nM | > 20000 nM | CCCc1nn(C)c2c(=O)[nH]c(-c3cc(Nc4ccc(C(=O)NO)cc4)ccc3OCC)nc12 | – | – | – | – | – | –
26 | 79 nM | 1080 nM | 33 nM | 11400 nM | CCCc1nn(C)c2c(=O)[nH]c(-c3cc(OCc4ccc(C(=O)NO)cc4)ccc3OCC)nc12 | – | – | – | – | – | –
27 | 3 nM | 2230 nM | 168 nM | 17500 nM | CCCc1nn(C)c2c(=O)[nH]c(-c3cc(Cc4ccc(C(=O)NO)o4)ccc3OCC)nc12 | – | – | – | – | – | IC50 [6]: > 20000 nM
28 | 3 nM | 276 nM | 192 nM | 799 nM | CCCc1nn(C)c2c(=O)[nH]c(-c3cc(C(=O)c4ccc(C(=O)NO)s4)ccc3OCC)nc12 | – | – | – | – | – | –

— ChEMBL document CHEMBL4196089, “Design, synthesis, biological evaluation and in vivo testing of dual phosphodiesterase 5 (PDE5) and histone deacetylase 6 (HDAC6)-selective inhibitors for the treatment of Alzheimer's disease” (Eur J Med Chem, 2018)
